Reference: PubChem BioAssay AID330 (DTP/NCI, 2004)
Values joined by “and” are separate entries in the source; they are usually repeats but may differ in a detail not shown here. Equal entries are not always repeated. Inconclusive results and toxic doses are left out.

Test system: P388 leukemia ip, CD2F1 mice, survival T/C
Experiment: NCI In Vivo Anticancer Drug Screen. Data for tumor model P388 Leukemia (intraperitoneal) in CD2F1 (CDF1) mice
Conditions: endpoint: median survival time, higher = longer survival
Outline: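 Mice carrying the transplanted tumor received test compound or vehicle. Survival was recorded in each group, and the value is the treated-group measurement divided by that of the vehicle-treated control group.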

[1] = dose: 50.0 mg/kg/injection, schedule: Q01DX005 (ip), vehicle: saline
[2] = dose: 100.0 mg/kg/injection, schedule: Q01DX005 (ip), vehicle: saline
[3] = dose: 200.0 mg/kg/injection, schedule: Q01DX005 (ip), vehicle: saline
[4] = dose: 50.0 mg/kg/injection, schedule: Q01DX009 (ip), vehicle: saline with Tween-80
[5] = dose: 100.0 mg/kg/injection, schedule: Q01DX009 (ip), vehicle: saline with Tween-80

How did the T/C (dose: 0.75 mg/kg/injection, schedule: Q01DX005 (ip), vehicle: saline with Tween-80) turn out when `CCCCCCCCCCCCN1C(C)=CS/C1=C\C=C\c1scc(C)[n+]1CCCCCCCCCCCC` was run?
Its T/C is 110 % of control.

What about the T/C (dose: 3.0 mg/kg/injection, schedule: Q01DX005 (ip), vehicle: saline with Tween-80) of the same compound?
The T/C was 119 % of control.

What about the T/C (dose: 3.12 mg/kg/injection, schedule: Q04DX002 (ip), vehicle: saline with Tween-80) of the same compound?
The T/C was 150 % of control.

And the T/C (dose: 6.25 mg/kg/injection, schedule: Q04DX002 (ip), vehicle: saline with Tween-80)?
Its T/C is 150 % of control and 157 % of control.

And the T/C (dose: 12.5 mg/kg/injection, schedule: Q04DX002 (ip), vehicle: saline with Tween-80)?
The T/C was 160 % of control and 163 % of control.

For `O=C(O)c1cc(O)c(O)c(OC(=O)c2cc(O)c(O)c(O)c2CNc2ccc3cc(S(=O)(=O)O)cc(S(=O)(=O)O)c3c2)c1`, which T/C (dose: 50.0 mg/kg/injection, schedule: Q01DX005 (ip), vehicle: saline with Tween-80) is on record?
Its T/C is 110 % of control.

What about the T/C (dose: 100.0 mg/kg/injection, schedule: Q01DX005 (ip), vehicle: saline with Tween-80) of the same compound?
The T/C was 115 % of control.

What about the T/C (dose: 200.0 mg/kg/injection, schedule: Q01DX005 (ip), vehicle: saline with Tween-80) of the same compound?
Its T/C is 112 % of control.

How did the T/C [1] turn out when `CC(CC(=O)O)C(N)C(=O)O` (centres undefined) was run?
The T/C was 96 % of control.

And the T/C (dose: 50.0 mg/kg/injection, schedule: Q01DX009 (ip), vehicle: saline)?
Its T/C is 92 % of control.

What about the T/C [2] of the same compound?
The T/C was 95 % of control.

What about the T/C (dose: 100.0 mg/kg/injection, schedule: Q01DX009 (ip), vehicle: saline) of the same compound?
Its T/C is 91 % of control.

What about the T/C [3] of the same compound?
Its T/C is 101 % of control.

And the T/C (dose: 200.0 mg/kg/injection, schedule: Q01DX009 (ip), vehicle: saline)?
Its T/C is 92 % of control.

For `O=C(CCl)N1CC2CCC(CC2)C1`, which T/C [4] is on record?
Its T/C is 102 % of control.

And the T/C [5]?
Its T/C is 91 % of control.

With `COC1/C=C/OC2(C)Oc3c(C)c(O)c4c(O)c(c(/C=N/N5C(C)CN(Cc6ccc([N+](=O)[O-])cc6)CC5C)c(O)c4c3C2=O)NC(=O)/C(C)=C\C=C\C(C)C(O)C(C)C(O)C(C)C(OC(C)=O)C1C` (centres undefined) as the compound, how does the T/C (dose: 25.0 mg/kg/injection, schedule: Q01DX009 (ip), vehicle: saline with Tween-80) read?
Its T/C is 100 % of control.

What about the T/C (dose: 25.0 mg/kg/injection, schedule: Q01DX009 (ip), vehicle: suspension in saline) of the same compound?
Its T/C is 103 % of control.

What about the T/C [4] of the same compound?
The T/C was 104 % of control and 119 % of control.

And the T/C (dose: 50.0 mg/kg/injection, schedule: Q01DX009 (ip), vehicle: suspension in saline)?
Its T/C is 103 % of control.

What about the T/C [5] of the same compound?
Its T/C is 119 % of control.

What about the T/C (dose: 100.0 mg/kg/injection, schedule: Q01DX009 (ip), vehicle: suspension in saline) of the same compound?
The T/C was 108 % of control.

What about the T/C (dose: 200.0 mg/kg/injection, schedule: Q01DX009 (ip), vehicle: suspension in saline) of the same compound?
The T/C was 119 % of control.

What does the source list for `c1ccc2c(c1)C1=NCCN1c1ccccc1-2`?
T/C (dose: 12.0 mg/kg/injection, schedule: Q01DX009 (ip), vehicle: saline with Tween-80): 109 % of control; T/C (dose: 12.0 mg/kg/injection, schedule: Q01DX009 (ip), vehicle: saline): 88 % of control; T/C (dose: 18.0 mg/kg/injection, schedule: Q01DX009 (ip), vehicle: saline with Tween-80): 113 % of control; T/C (dose: 18.0 mg/kg/injection, schedule: Q01DX009 (ip), vehicle: saline): 105 % of control; T/C (dose: 27.0 mg/kg/injection, schedule: Q01DX009 (ip), vehicle: saline with Tween-80): 118 % of control; T/C (dose: 27.0 mg/kg/injection, schedule: Q01DX009 (ip), vehicle: saline): 111 % of control; T/C (dose: 40.0 mg/kg/injection, schedule: Q01DX009 (ip), vehicle: saline with Tween-80): 122 % of control

Which T/C [1] does the source give for `CN(CCO)c1ncnc2c1ncn2C` here?
The T/C was 99 % of control.

And the T/C [2]?
The T/C was 108 % of control.

What about the T/C [3] of the same compound?
The T/C was 100 % of control.

What does the source list for `COC(=O)c1cc2c(oc1=O)-c1ccccc1N(C=O)C2`?
T/C (dose: 60.0 mg/kg/injection, schedule: Q01DX005 (ip), vehicle: saline with Tween-80): 86 % of control; T/C (dose: 120.0 mg/kg/injection, schedule: Q01DX005 (ip), vehicle: saline with Tween-80): 88 % of control; T/C (dose: 240.0 mg/kg/injection, schedule: Q01DX005 (ip), vehicle: saline with Tween-80): 98 % of control

How did the T/C (dose: 25.0 mg/kg/injection, schedule: Q01DX005 (ip), vehicle: distilled water + Tween-80 + alcohol) turn out when `COc1c(OC)c(OC)c(-c2cc(=O)c3c(OC)cccc3o2)c(OC)c1OC` was run?
Its T/C is 102 % of control.

What about the T/C (dose: 50.0 mg/kg/injection, schedule: Q01DX005 (ip), vehicle: distilled water + Tween-80 + alcohol) of the same compound?
The T/C was 96 % of control.

And the T/C (dose: 100.0 mg/kg/injection, schedule: Q01DX005 (ip), vehicle: distilled water + Tween-80 + alcohol)?
Its T/C is 95 % of control.

What does the source list for `O/N=C/C1CCCC[N-]1.O/N=C/C1CCCC[N-]1.O/N=C/C1CCCC[N-]1.[Cu]` (centres undefined)?
T/C (dose: 1.56 mg/kg/injection, schedule: Q01DX009 (ip), vehicle: saline): 87 % of control; T/C (dose: 3.12 mg/kg/injection, schedule: Q01DX009 (ip), vehicle: saline): 96 % of control; T/C (dose: 6.25 mg/kg/injection, schedule: Q01DX009 (ip), vehicle: saline): 87 % of control

What does the source list for `C(=NCCN=Cc1ccccc1)c1ccccc1`?
T/C (dose: 200.0 mg/kg/injection, schedule: Q01DX009 (ip), vehicle: saline with Tween-80): 95 % of control; T/C (dose: 400.0 mg/kg/injection, schedule: Q01DX009 (ip), vehicle: saline with Tween-80): 87 % of control
